Like-named read-outs stand apart in the source and are kept apart here.
Experiments:
[1] = system: Neisseria gonorrhoeae CDC panel consisting of 48 isolates; assay: Agar dilution MIC, CDC panel of 48 isolates (Example 2); assay type: cell-based; details: for MIC: Neisseria gonorrhoeae, read-out: Minimal inhibitory concentration
Description: Neisseria gonorrhoeae (Neisseria gonocossus) were tested for antimicrobial susceptibility using agar dilution as described by the Clinical and Laboratory Standards Institute (CLSI), see reference (4).
The concentrations tested for each compound encompass the reported interpretive breakpoints and consist of 8 or more doubling dilutions, ensuring that there is one dilution below the lowest value of QC.
GC agar base +1% defined growth supplement.
Initial screening strains: Neisseria gonorrhoeae CDC panel consisting of 48 isolates. The strains were provided by Clinical and Environmental Microbiology Branch, Division of Healthcare Quality Promotion, CDC (Atlanta, US).
Dilution scheme for reference method: Prepare intermediate 100× antimicrobial agent solutions by making successive serial twofold dilutions. Then, add one part of the 100× antimicrobial solution to […] of molten agar. Plates containing no antimicrobial agent solutions are made for use as growth controls. It is important that no longer than one hour elapses between the time that the stock solution is thawed, the dilutions are prepared and added to the base medium and the plates are poured, see reference (5).
• Add appropriate dilutions of antimicrobial solution to molten test agars that have been allowed to equilibrate in a water bath to 50° C. • Mix the agar and antimicrobial solution thoroughly and pour (20 mL) into Petri dishes on a level surface. Pour quickly after mixing to prevent cooling and partial solidification in the mixing container. Avoid generating bubbles when mixing. • Allow the agar to solidify at room temperature and store them in sealed plastic bags at 2 to 8° C. for up to five days. Preferably use with 24 hours. • Allow plates stored at 2 to 8° C. to equilibrate to room temperature before use. Make certain that the agar surface is dry before inoculating the plates. If necessary, place the plates in an incubator or laminar flow hood for approximately 30 minutes with their lids ajar to hasten drying of the agar surface.
Inoculum preparation: Prepare a standardized inoculum for the agar dilution method by suspending isolated colonies of Neisseria gonorrhoeae selected from an 18-24 hour-old chocolate agar plate directly in Mueller Hinton Broth (MHB) to achieve the density equivalent to a 0.5 McFarland standard and adjusted to obtain a cell density of ˜1-2×10^8 CFU/mL. For N. gonorrhoeae, the McFarland solutions are made at a reading of ˜0.80 in densitometer (Grant Instruments DEN-1B Densitometer) because these values have been evaluated and correspond to the desired CFU/mL count.
Dilution of inoculum suspension: Cultures adjusted to the 0.5 McFarland standard contain approximately 1 to 2×10^8 CFU/mL with most species, and the final inoculum required is 10^4 CFU per spot. When using replicators with 3-mm pins that deliver ˜2.5 μL, dilute the 0.5 McFarland suspension 1:10 in sterile MHB to obtain a concentration of 10^7 CFU/mL. The final inoculum on the agar will be approximately 10^4 CFU per spot. Use the adjusted suspensions for final inoculation within 60 minutes of preparation, see reference (5).
The following procedure was followed: • Arrange the tubes containing the adjusted and diluted bacterial suspensions (10^7 CFU/mL) in order in a rack. Place an aliquot of each well-mixed suspension into the corresponding well in the replicator inoculum block (if being used). • Mark the agar plates for orientation of the inoculum spots. • Apply an aliquot of each inoculum (2.5 μL) to the agar surface, either with an inocula-replicating device or pipette, to obtain a final concentration of ˜10^4 CFU/spot. • Inoculate a growth-control plate (no antimicrobial agent) first and then, starting with the lowest concentration, inoculate the plates containing the different antimicrobial concentrations. […]

rabbits = details: p.o.; cited from earlier work
mice = details: p.o.; cited from earlier work
rats = details: cited from earlier work

`O=C(Nc1ccc([N+](=O)[O-])cc1Cl)c1cc(Cl)ccc1O` [Niclosamide, 2′,5-dichloro-4′-nitrosalicylanilide] showed an MIC ([1]; Neisseria gonorrhoeae strain CDC # 165) of at most 0.25 mg/L, an MIC ([1]; Neisseria gonorrhoeae strain CDC # 166) of at most 0.25 mg/L and an MIC ([1]; Neisseria gonorrhoeae strain CDC # 167) of at most 0.25 mg/L. The MIC ([1]; Neisseria gonorrhoeae strain CDC # 169) was at most 0.25 mg/L, the MIC ([1]; Neisseria gonorrhoeae strain CDC # 170) was at most 0.25 mg/L and the MIC ([1]; Neisseria gonorrhoeae strain CDC # 171) was at most 0.25 mg/L. It also gave an MIC ([1]; Neisseria gonorrhoeae strain CDC # 172) of at most 0.25 mg/L, an MIC ([1]; Neisseria gonorrhoeae strain CDC # 173) of at most 0.25 mg/L and an MIC ([1]; Neisseria gonorrhoeae strain CDC # 174) of at most 0.25 mg/L. The MIC ([1]; Neisseria gonorrhoeae strain CDC # 175) was at most 0.25 mg/L, the MIC ([1]; Neisseria gonorrhoeae strain CDC # 176) was at most 0.25 mg/L and the MIC ([1]; Neisseria gonorrhoeae strain CDC # 177) was at most 0.25 mg/L. It also gave an MIC ([1]; Neisseria gonorrhoeae strain CDC # 178) of at most 0.25 mg/L, an MIC ([1]; Neisseria gonorrhoeae strain CDC # 179) of at most 0.25 mg/L and an MIC ([1]; Neisseria gonorrhoeae strain CDC # 180) of at most 0.25 mg/L. It also gave an MIC ([1]; Neisseria gonorrhoeae strain CDC # 181) of at most 0.25 mg/L, an MIC ([1]; Neisseria gonorrhoeae strain CDC # 182) of at most 0.25 mg/L and an MIC ([1]; Neisseria gonorrhoeae strain CDC # 183) of at most 0.25 mg/L. For the same molecule, the MIC ([1]; Neisseria gonorrhoeae strain CDC # 184) was at most 0.25 mg/L, the MIC ([1]; Neisseria gonorrhoeae strain CDC # 185) was at most 0.25 mg/L and the MIC ([1]; Neisseria gonorrhoeae strain CDC # 186) was at most 0.25 mg/L. The MIC ([1]; Neisseria gonorrhoeae strain CDC # 187) was at most 0.25 mg/L, the MIC ([1]; Neisseria gonorrhoeae strain CDC # 188) was at most 0.25 mg/L and the MIC ([1]; Neisseria gonorrhoeae strain CDC # 189) was at most 0.25 mg/L. The MIC ([1]; Neisseria gonorrhoeae strain CDC # 190) was at most 0.25 mg/L, the MIC ([1]; Neisseria gonorrhoeae strain CDC # 191) was at most 0.25 mg/L and the MIC ([1]; Neisseria gonorrhoeae strain CDC # 192) was at most 0.25 mg/L. For the same molecule, the MIC ([1]; Neisseria gonorrhoeae strain CDC # 193) was at most 0.25 mg/L, the MIC ([1]; Neisseria gonorrhoeae strain CDC # 194) was at most 0.25 mg/L and the MIC ([1]; Neisseria gonorrhoeae strain CDC # 195) was at most 0.25 mg/L. For the same molecule, the MIC ([1]; Neisseria gonorrhoeae strain CDC # 196) was at most 0.25 mg/L, the MIC ([1]; Neisseria gonorrhoeae strain CDC # 198) was at most 0.25 mg/L and the MIC ([1]; Neisseria gonorrhoeae strain CDC # 199) was at most 0.25 mg/L. The MIC ([1]; Neisseria gonorrhoeae strain CDC # 200) was at most 0.25 mg/L, the MIC ([1]; Neisseria gonorrhoeae strain CDC # 201) was at most 0.25 mg/L and the MIC ([1]; Neisseria gonorrhoeae strain CDC # 202) was at most 0.25 mg/L. It also gave an MIC ([1]; Neisseria gonorrhoeae strain CDC # 203) of at most 0.25 mg/L, an MIC ([1]; Neisseria gonorrhoeae strain CDC # 204) of at most 0.25 mg/L and an MIC ([1]; Neisseria gonorrhoeae strain CDC # 205) of at most 0.25 mg/L. For the same molecule, the MIC ([1]; Neisseria gonorrhoeae strain CDC # 206) was at most 0.25 mg/L, the MIC ([1]; Neisseria gonorrhoeae strain CDC # 207) was at most 0.25 mg/L and the MIC ([1]; Neisseria gonorrhoeae strain CDC # 208) was at most 0.25 mg/L. For the same molecule, the MIC ([1]; Neisseria gonorrhoeae strain CDC # 209) was at most 0.25 mg/L, the MIC ([1]; Neisseria gonorrhoeae strain CDC # 210) was at most 0.25 mg/L and the MIC ([1]; Neisseria gonorrhoeae strain CDC # 211) was at most 0.25 mg/L. For the same molecule, the MIC ([1]; Neisseria gonorrhoeae strain CDC # 212) was at most 0.25 mg/L, the MIC ([1]; Neisseria gonorrhoeae strain CDC # 213) was at most 0.25 mg/L and the MIC ([1]; Neisseria gonorrhoeae strain CDC # 214) was at most 0.25 mg/L. For the same molecule, the “in vitro activity (in words)” value ([1]; against N. gonococcus (N. gonorrhoeae), Example 2 conclusion) was “Good in vitro activity”, the LD50 (rabbits) was 5000 mg/kg and the LD50 (mice) was over 5000 mg/kg. The LD50 (rats; dermal) was 2000 mg/kg and the LD50 (rats; p.o.) was 5000 mg/kg.

From patent US20210137948A1, “TREATMENT OF INFECTIONS CAUSED BY NEISSERIA GONOCOCCUS USING A HALOGENATED SALICYLANILIDE” (priority 2018, published 2021)
